Reference: US8658568B2, “6-amino-2-substituted-5-vinylsilylpyrimidine-4-carboxylic acids and esters and 4-amino-6-substituted-3-vinylsilylpyridine-2-carboxylic acids and esters as herbicides” (Dow AgroSciences, LLC., priority 2011, dated 2014)

Assays:
Type in all cases: in vivo
[1] = system: ABUTH = velvetleaf (Abutilon theophrasti); assay: Postemergence herbicidal activity, velvetleaf; settings: post-emergence, 336 h, post-emergent, visual score after 14 days (0 no injury, 100 complete kill), read-out: % Growth Reduction ABUTH; for pest or weed control at 140 g/ha: rate 140 g ai/ha; for pest or weed control at 280 g/ha: rate 280 g ai/ha
Method: (§1) Evaluation of Postemergence Herbicidal Activity
(§2) Seeds or nutlets of the desired test plant species were planted in Sun Gro MetroMix® 306 planting mixture, which typically has a pH of 6.0 to 6.8 and an organic matter content of about 30 percent, in plastic pots with a surface area of 64 square centimeters. When required to ensure good germination and healthy plants, a fungicide treatment and/or other chemical or physical treatment was applied. The plants were grown for 7-21 days in a greenhouse with an approximate 15 hour photoperiod which was maintained at about 23-29° C. during the day and 22-28° C. during the night. Nutrients and water were added on a regular basis and supplemental lighting was provided with overhead metal halide 1000-Watt lamps as necessary. The plants were employed for testing when they reached the first or second true leaf stage.
(§3) A weighed amount, determined by the highest rate to be tested, of each test compound was placed in a 25 mL glass vial and was dissolved in 4 mL of a 97:3 v/v (volume/volume) mixture of acetone and dimethyl sulfoxide (DMSO) to obtain concentrated stock solutions. […] The concentrated stock solutions obtained were diluted with 20 mL of an aqueous mixture containing acetone, water, isopropyl alcohol, DMSO, Atplus 411F crop oil concentrate, and Triton® X-155 surfactant in a 48.5:39:10:1.5:1.0:0.02 v/v ratio to obtain spray solutions containing the highest application rates. Additional application rates were obtained by serial dilution of 12 mL of the high rate solution into a solution containing 2 mL of 97:3 (v/v) mixture of acetone and dimethyl sulfoxide (DMSO) and 10 mL of an aqueous mixture containing acetone, water, isopropyl alcohol, DMSO, Atplus 411F crop oil concentrate, and Triton X-155 surfactant in a 48.5:39:10:1.5:1.0:0.02 (v/v) ratio to obtain 1/2 ×, 1/4 ×, 1/8× and 1/16× rates of the high rate. Compound requirements are based upon a 12 mL application volume at a rate of 187 L/ha. Formulated compounds were applied to the plant material with an overhead Mandel track sprayer equipped with a 8002E nozzles calibrated to deliver 187 L/ha over an application area of 0.503 square meters at a spray height of 18 inches (43 cm) above the average plant canopy height. Control plants were sprayed in the same manner with the solvent blank.
(§4) The treated plants and control plants were placed in a greenhouse as described above and watered by sub-irrigation to prevent wash-off of the test compounds. After 14 days, the condition of the test plants as compared with that of the untreated plants was determined visually and scored on a scale of 0 to 100 percent where 0 corresponds to no injury and 100 corresponds to complete kill
(§5) By applying the well-accepted probit analysis as described by J. Berkson in Journal of the […], 48, 565 (1953) and by D. Finney in “Probit Analysis” Cambridge University Press (1952), the above data can be used to calculate GR50 and GR80 values, which are defined as growth reduction factors that correspond to the effective dose of herbicide required to kill or control 50 percent or 80 percent, respectively, of a target plant.

[2] = system: AMARE = redroot pigweed (Amaranthus retroflexus); assay: Postemergence herbicidal activity, redroot pigweed; settings: post-emergence, 336 h, post-emergent, rate 140 g ai/ha, visual score after 14 days (0 no injury, 100 complete kill), read-out: % Growth Reduction AMARE
Method: as §1, §2, §3, §4, §5

[3] = system: ECHCG = barnyardgrass (Echinochloa crus-galli); assay: Postemergence herbicidal activity, barnyardgrass; settings: post-emergence, 336 h, post-emergent, visual score after 14 days (0 no injury, 100 complete kill), read-out: % Growth Reduction ECHCG; for pest or weed control at 140 g/ha: rate 140 g ai/ha; for pest or weed control at 280 g/ha: rate 280 g ai/ha
Method: as §1, §2, §3, §4, §5

[4] = system: HELAN = sunflower (Helianthus annuus); assay: Postemergence herbicidal activity, sunflower; settings: post-emergence, 336 h, post-emergent, visual score after 14 days (0 no injury, 100 complete kill), read-out: % Growth Reduction HELAN; for pest or weed control at 140 g/ha: rate 140 g ai/ha; for pest or weed control at 280 g/ha: rate 280 g ai/ha
Method: as §1, §2, §3, §4, §5

[5] = system: CHEAL = lambsquarters (Chenopodium album); assay: Postemergence herbicidal activity, lambsquarters; settings: post-emergence, 336 h, post-emergent, visual score after 14 days (0 no injury, 100 complete kill), read-out: % Growth Reduction CHEAL; for pest or weed control at 140 g/ha: rate 140 g ai/ha; for pest or weed control at 280 g/ha: rate 280 g ai/ha
Method: as §1, §2, §3, §4, §5

[6] = system: IPOHE = ivyleaf morningglory (Ipomoea hederacea); assay: Postemergence herbicidal activity, ivyleaf morningglory; settings: post-emergence, 336 h, post-emergent, visual score after 14 days (0 no injury, 100 complete kill), read-out: % Growth Reduction IPOHE; for pest or weed control at 140 g/ha: rate 140 g ai/ha; for pest or weed control at 280 g/ha: rate 280 g ai/ha
Method: as §1, §2, §3, §4, §5

[7] = system: EPHHL = wild poinsettia (Euphorbia heterophylla); assay: Postemergence herbicidal activity, wild poinsettia; settings: post-emergence, 336 h, post-emergent, visual score after 14 days (0 no injury, 100 complete kill), read-out: % Growth Reduction EPHHL; for pest or weed control at 140 g/ha: rate 140 g ai/ha; for pest or weed control at 280 g/ha: rate 280 g ai/ha
Method: as §1, §2, §3, §4, §5

Structure (SMILES)	pest or weed control at 140 g/ha [1]	pest or weed control at 140 g/ha [2]	pest or weed control at 140 g/ha [3]	pest or weed control at 140 g/ha [4]	pest or weed control at 140 g/ha [5]	pest or weed control at 140 g/ha [6]	pest or weed control at 140 g/ha [7]	pest or weed control at 280 g/ha [1]	pest or weed control at 280 g/ha [3]	pest or weed control at 280 g/ha [4]	pest or weed control at 280 g/ha [5]	pest or weed control at 280 g/ha [6]	pest or weed control at 280 g/ha [7]
COC(=O)c1nc(-c2ccc(Cl)c(F)c2F)nc(N)c1/C=C/[Si](C)(C)C [Compound 1, (E)-methyl 6-amino-2-(4-chloro-2,3-difluorophenyl)-5-(2-(trimethylsilyl)vinyl)pyrimidine-4-carboxylate]	100%	100%	85%	90%	100%	80%	50%	–	–	–	–	–	–
COC(=O)c1nc(-c2ccc(Cl)cc2F)nc(N)c1/C=C/[Si](C)(C)C [Compound 3, (E)-methyl 6-amino-2-(4-chloro-2-fluorophenyl)-5-(2-(trimethylsilyl)vinyl)pyrimidine-4-carboxylate]	100%	100%	0%	90%	100%	70%	100%	–	–	–	–	–	–
CCOC(=O)c1nc(C2CC2)nc(N)c1/C=C/[Si](C)(C)C [Compound 4, (E)-ethyl 6-amino-2-cyclopropyl-5-(2-(trimethylsilyl)vinyl)pyrimidine-4-carboxylate]	0%	–	0%	0%	100%	100%	100%	–	–	–	–	–	–
C[Si](C)(C)/C=C/c1c(N)nc(C2CC2)nc1C(=O)O [Compound 8, (E)-6-amino-2-cyclopropyl-5-(2-(trimethylsilyl)vinyl)pyrimidine-4-carboxylic acid]	–	–	–	–	–	–	–	0%	0%	65%	65%	78%	100%
CCO[Si](/C=C/c1c(N)nc(-c2ccc(Cl)c(OC)c2F)nc1C(=O)OC)(OCC)OCC [Compound 9, (E)-methyl 6-amino-2-(4-chloro-2-fluoro-3-methoxyphenyl)-5-(2-(triethoxysilyl)vinyl)pyrimidine-4-carboxylate]	100%	–	80%	90%	100%	80%	100%	–	–	–	–	–	–
COc1c(Cl)ccc(-c2nc(N)c(/C=C/[Si](O)(O)O)c(C(=O)O)n2)c1F [Compound 10, (E)-6-amino-2-(4-chloro-2-fluoro-3-methoxyphenyl)-5-(2-(trihydroxysilyl)vinyl)pyrimidine-4-carboxylic acid]	100%	–	80%	100%	100%	80%	100%	–	–	–	–	–	–
C[Si](C)(C)/C=C/c1c(C(=O)O)nc(-c2ccc(Cl)c(F)c2)c(F)c1N [Compound 14, (E)-4-amino-6-(4-chloro-3-fluorophenyl)-5-fluoro-3-(2-(trimethylsilyl)vinyl)picolinic acid]	65%	–	70%	80%	100%	80%	100%	–	–	–	–	–	–
CCc1nc(C(=O)O)c(/C=C/[Si](C)(C)C)c(N)c1F [Compound 16, (E)-4-amino-6-ethyl-5-fluoro-3-(2-(trimethylsilyl)vinyl)picolinic acid]	–	–	–	–	–	–	–	5%	0%	20%	10%	60%	0%
